What is called IC50 is the midpoint of a concentration-inhibition curve.

This passage reports IC50 results from patent publication US9546153B2, “Bicyclic heterocycle substituted pyridyl compounds useful as kinase modulators” (BRISTOL-MYERS SQUIBB COMPANY, priority 2012, dated 2017).

One assay deals with IRAK4 (Homo sapiens (Human), UniProt Q9NWZ3). Description: IRAK4 Inhibition Assay. The assay is classed as biochemical. The note with it: ATP 500 μM; IRAK4 0.6 nM; 60 min at room temperature. As to the method:
The assays were performed in U-bottom 384-well plates. […] The reaction was initiated by the combination of IRAK4 with substrates and test compounds. The reaction was incubated at room temperature for 60 min. and terminated by adding 45 μL of 35 mM EDTA to each sample. The reaction mixture was analyzed on the Caliper LABCHIP® 3000 (Caliper, Hopkinton, Mass.) by electrophoretic separation of the fluorescent substrate and phosphorylated product.

The subject of assay [1] is TLR2 induced IL-6 in peripheral blood mononuclear cells (PBMCs). Nature of the assay: PBMC TLR2 Induced IL-6 Assay. The assay is classed as cell-based, human. The note with it: human PBMCs, 10 μg/ml lipoteichoic acid for 5 hours, IL-6 by ELISA, value without asterisk, read-out: Cell IC50. An outline of the steps: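 IL-6 ELISA of supernatants after a 5 h challenge with the TLR2 agonist lipoteichoic acid (10 μg/ml). Before stimulation, human PBMCs (250000 cells/well; RPMI, 10% heat-inactivated FCS) received compound for 30 min at 37° C. Values given as IC50 or EC50.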
(An ELISA detects its analyte on a solid surface through an enzyme-linked reagent.)

The structures appear in SMILES notation. Where two headings read alike, the source gives them in different places.

Chain of IRAK4 (Q9NWZ3 whole entry, species assumed): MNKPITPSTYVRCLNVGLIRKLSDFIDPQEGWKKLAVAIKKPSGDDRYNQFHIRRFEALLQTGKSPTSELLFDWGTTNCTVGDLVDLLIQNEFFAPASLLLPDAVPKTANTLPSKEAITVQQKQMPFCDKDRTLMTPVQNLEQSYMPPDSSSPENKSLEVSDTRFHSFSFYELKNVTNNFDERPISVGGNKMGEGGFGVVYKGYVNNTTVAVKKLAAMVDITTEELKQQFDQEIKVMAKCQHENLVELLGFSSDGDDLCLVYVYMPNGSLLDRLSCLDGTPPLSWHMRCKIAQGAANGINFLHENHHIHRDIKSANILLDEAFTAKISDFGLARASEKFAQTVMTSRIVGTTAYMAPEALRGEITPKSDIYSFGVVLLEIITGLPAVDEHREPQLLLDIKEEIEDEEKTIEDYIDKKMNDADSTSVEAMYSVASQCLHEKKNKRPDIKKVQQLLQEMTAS

Regarding `CC(C)(O)[C@H](F)CNC(=O)c1cnc(Nc2ccc3nccnc3c2)cc1NC1CCCC1(F)F` (stereo partly drawn) [Example 359], the IC50 on IRAK4 was 4.6 nM; in assay [1] (Homo sapiens, PBMC, 5 h), 188 nM.

For the compound `CC(C)(O)[C@H](F)CNC(=O)c1cnc(Nc2ccc3ncccc3c2)cc1NC1CCCC1(F)F` (stereo partly drawn) [Example 360], the IC50 at IRAK4 is 2.8 nM; in assay [1] (Homo sapiens, PBMC, 5 h), 73 nM.

For the compound `CC(C)(O)C(F)CNC(=O)c1cnc(Nc2ccc3ncsc3c2)cc1NC1CC(C(F)F)C1` (stereo not drawn) [Example 361, 4-(3-(difluoromethyl)cyclobutylamino)-6-(3a,27a-dihydrobenzo[d]thiazol-6-ylamino)-N-(2-fluoro-3-hydroxy-3-methylbutyl)nicotinamide], the IC50 on IRAK4 is 6.9 nM; in assay [1], 176 nM.

Regarding `CC(C)(O)[C@@H](F)CNC(=O)c1cnc(Nc2ccc3ncsc3c2)cc1NC1CC1` [Example 366, (S)-6-(benzo[d]thiazol-6-ylamino)-4-(cyclopropylamino)-N-(2-fluoro-3-hydroxy-3-methylbutyl)nicotinamide], the IC50 on IRAK4 came to 9.3 nM; in assay [1] (Homo sapiens, PBMC, 5 h) it was 734 nM.

Consider `CC(C)Nc1cc(Nc2nc3ccnn3cc2F)ncc1C(=O)NC[C@@H](F)C(C)(C)O` [Example 367, (R)—N-(2-fluoro-3-hydroxy-3-methylbutyl)-6-((6-fluoropyrazolo[1,5-a]pyrimidin-5-yl)amino)-4-(isopropylamino)nicotinamide], for which the IC50 was 4.8 nM at IRAK4 and 569 nM in assay [1] (Homo sapiens, PBMC, 5 h).

`CC(C)(O)[C@H](F)CNC(=O)c1cnc(Nc2nc3ccnn3cc2F)cc1NC1CC1` [Example 368]: the IC50 on IRAK4 was found to be 5.3 nM; in assay [1] it was 445 nM.

As for `CC(C)(O)[C@H](F)CNC(=O)c1cnc(Nc2nc3ccnn3cc2F)cc1NC1CCOCC1` [Example 369], the IC50 on IRAK4 came out at 8.1 nM; in assay [1] (Homo sapiens, PBMC, 5 h), 859 nM.

As to `CC(C)(O)[C@H](F)CNC(=O)c1cnc(Nc2ncc3ncccc3n2)cc1NC1CCOCC1` [Example 371], the IC50 on IRAK4 was determined as 6 nM; in assay [1] (Homo sapiens, PBMC, 5 h), 604 nM.

Consider `CC(C)(F)CNc1cc(Nc2ccc3ncc(C#N)cc3n2)ncc1C(=O)NC[C@@H](F)C(C)(C)O` [Example 373], for which the IC50 at IRAK4 was 5.1 nM; in assay [1] (Homo sapiens, PBMC, 5 h) it was 431 nM.

Take `CC(C)Nc1cc(Nc2ccc3ncc(Cl)cc3n2)ncc1C(=O)NC[C@@H](F)C(C)(C)O` [Example 374]: the half-inhibitory concentration (IC50) on IRAK4 is 3.1 nM; in assay [1] (Homo sapiens, PBMC, 5 h) it was 271 nM.

As for `CC(C)(O)[C@H](F)CNC(=O)c1cnc(Nc2ccc3ncsc3c2)cc1Nc1ccc(S(C)(=O)=O)cc1` [Example 382], the IC50 on IRAK4 is 6.3 nM; in assay [1] (Homo sapiens, PBMC, 5 h) it was 491 nM.

For the compound `CC(C)(O)[C@H](F)CNC(=O)c1cnc(Nc2ccn3nccc3n2)cc1Nc1ccc(S(C)(=O)=O)cc1` [Example 383], the IC50 at IRAK4 turned out to be 6.3 nM; in assay [1] (Homo sapiens, PBMC, 5 h), 194 nM.

Turning to `CC(C)(O)[C@H](F)CNC(=O)c1cnc(Nc2ccc3ncsc3c2)cc1NC1CCSCC1` [Example 384], the IC50 is 3.5 nM at IRAK4 and 180 nM in assay [1] (Homo sapiens, PBMC, 5 h).

On to `CC(C)(O)[C@H](F)CNC(=O)c1cnc(Nc2ccn3nccc3n2)cc1NC1CCSCC1` [Example 385], for which the IC50 on IRAK4 is 4.3 nM; in assay [1] (Homo sapiens, PBMC, 5 h) it was 135 nM.

With `CC(C)(O)[C@H](F)CNC(=O)c1cnc(Nc2ccn3nccc3n2)cc1NCC(F)F` [Example 386], the IC50 worked out at 20.1 nM on IRAK4 and 516 nM in assay [1] (Homo sapiens, PBMC, 5 h).

On to `CCC(C)Nc1cc(Nc2ccn3nccc3n2)ncc1C(=O)NC[C@@H](F)C(C)(C)O` (stereo partly drawn) [Example 387], for which the IC50 at IRAK4 came out at 4.3 nM; in assay [1] (Homo sapiens, PBMC, 5 h), 293 nM.

Take `CCC(C)Nc1cc(Nc2ccn3nccc3n2)ncc1C(=O)NC[C@@H](F)C(C)(C)O` (stereo partly drawn) [Example 388]: the IC50 at IRAK4 was determined as 6.6 nM; in assay [1], 234 nM.

As to `CCC(O)(CC)[C@H](F)CNC(=O)c1cnc(Nc2ccn3nccc3n2)cc1NCC(C)(C)F` [Example 389], the IC50 was 10.4 nM at IRAK4 and 574 nM in assay [1] (Homo sapiens, PBMC, 5 h).

With `CC(C)(O)[C@H](F)CNC(=O)c1cnc(Nc2nc3ccnn3cc2F)cc1NC1CCC(F)(F)C1` (stereo partly drawn) [Example 391], the IC50 on IRAK4 was determined as 2.5 nM; in assay [1] it was 119 nM.

Consider `CC(C)(O)[C@H](F)CNC(=O)c1cnc(Nc2nc3ccnn3cc2F)cc1NC1CCC(F)(F)C1` (stereo partly drawn) [Example 392], for which the half-maximal inhibitory concentration (IC50) on IRAK4 was 8 nM; in assay [1] it was 297 nM.

For the compound `CC(C)(O)[C@H](F)CNC(=O)c1cnc(Nc2ccc3ncsc3c2)cc1NC12CCC(NC(=O)c3ccccc3)(CC1)C2` [Example 394], the IC50 came out at 10.2 nM at IRAK4 and 311 nM in assay [1] (Homo sapiens, PBMC, 5 h).

`CC(C)(O)[C@H](F)CNC(=O)c1cnc(Nc2ccc3ncsc3c2)cc1NC12CCC(NC(=O)c3cccnc3)(CC1)C2` [Example 395]: the IC50 on IRAK4 worked out at 4.4 nM; in assay [1] (Homo sapiens, PBMC, 5 h), 333 nM.

For `CC(C)(O)[C@H](F)CNC(=O)c1cnc(Nc2ccc3ncsc3c2)cc1NC12CCC(NS(C)(=O)=O)(CC1)C2` [Example 396], the IC50 came out at 2.7 nM at IRAK4 and 351 nM in assay [1] (Homo sapiens, PBMC, 5 h).

In the case of `CCOC(=O)NC12CCC(Nc3cc(Nc4ccc5ncsc5c4)ncc3C(=O)NC[C@@H](F)C(C)(C)O)(CC1)C2` [Example 397], the IC50 at IRAK4 was determined as 4.9 nM; in assay [1] (Homo sapiens, PBMC, 5 h), 197 nM.

Consider `CN(C)CC(=O)NC12CCC(Nc3cc(Nc4ccc5ncsc5c4)ncc3C(=O)NC[C@@H](F)C(C)(C)O)(CC1)C2` [Example 398], for which the IC50 on IRAK4 was found to be 3.5 nM; in assay [1] (Homo sapiens, PBMC, 5 h), 301 nM.

Regarding `CC(C)(O)[C@H](F)CNC(=O)c1cnc(Nc2ccc3ncsc3c2)cc1NC12CCC(NC(=O)c3ccncc3)(CC1)C2` [Example 399], the IC50 at IRAK4 was 3.1 nM; in assay [1] (Homo sapiens, PBMC, 5 h), 203 nM.

`CC(C)(O)[C@H](F)CNC(=O)c1cnc(Nc2ccc3ncsc3c2)cc1NC12CCC(NC(=O)c3ccccn3)(CC1)C2` [Example 400]: the IC50 at IRAK4 amounted to 7.5 nM; in assay [1] (Homo sapiens, PBMC, 5 h), 119 nM.

For `CC(C)(O)[C@H](F)CNC(=O)c1cnc(Nc2ccc3ncsc3c2)cc1NC12CCC(NS(=O)(=O)c3ccccc3)(CC1)C2` [Example 401], the IC50 at IRAK4 amounted to 12.6 nM; in assay [1] (Homo sapiens, PBMC, 5 h) it was 328 nM.

`CC(C)Nc1cc(Nc2ccc3ncsc3c2)ncc1C(=O)NCCN1CCOCC1` [Example 402]: the IC50 on IRAK4 stood at 9 nM; in assay [1] (Homo sapiens, PBMC, 5 h), 357 nM.

Take `CCC(O)(CC)[C@H](F)CNC(=O)c1cnc(Nc2cc3scnc3cn2)cc1NC1CC1` [Example 403]: the IC50 is 21 nM on IRAK4 and 1480 nM in assay [1] (Homo sapiens, PBMC, 5 h).

As for `CC(C)(O)[C@H](F)CNC(=O)c1cnc(Nc2ccc3ncccc3n2)cc1NC1CCCC1F` (stereo partly drawn) [Example 404], the IC50 on IRAK4 was 7.8 nM; in assay [1] (Homo sapiens, PBMC, 5 h), 1010 nM.

As for `CC(C)(O)[C@H](F)CNC(=O)c1cnc(Nc2ccc3ncccc3n2)cc1NC1CCCC1F` (stereo partly drawn) [Example 405], the IC50 at IRAK4 came to 5.8 nM; in assay [1], 788 nM.

Regarding `CC(C)(O)[C@H](F)CNC(=O)c1cnc(Nc2ccc3ncc(C#N)cc3n2)cc1NC1CCC(F)(F)C1` (stereo partly drawn) [Example 406], the figures for the IC50 (on IRAK4; in assay [1]) were 11.8 nM and 1320 nM, respectively.

On to `CC(C)(O)[C@H](F)CNC(=O)c1cnc(Nc2ccc3ncc(C#N)cc3n2)cc1NC1CCC(F)(F)C1` (stereo partly drawn) [Example 407], for which the IC50 was determined as 2.7 nM at IRAK4 and 260 nM in assay [1].

For the compound `CC(C)(O)[C@H](F)CNC(=O)c1cnc(Nc2nc3ccnn3cc2F)cc1NC1CCC(F)C1` (stereo partly drawn) [Example 408], the IC50 at IRAK4 stood at 1.9 nM; in assay [1], 209 nM.

Take `CC(C)(O)[C@H](F)CNC(=O)c1cnc(Nc2nc3ccnn3cc2F)cc1NC1CCC(F)C1` (stereo partly drawn) [Example 409]: the IC50 at IRAK4 came to 3 nM; in assay [1], 207 nM.
